Measured values taken from ChEMBL document CHEMBL3885881, “DrugMatrix”.

Species: Rattus norvegicus
Assay: DrugMatrix - Regimen: Daily Repeat
Assay type: toxicity, organism-based, Sprague-Dawley
Set-up: regimen Daily Repeat, gender Male, age 6-8 weeks
Conditions: in vivo, sc, route subcutaneous, […]; for ABSOLUTE BASOPHIL / ABSOLUTE EOSINOPHIL / ABSOLUTE LYMPHOCYTE / ABSOLUTE MONOCYTE / ABSOLUTE SEGMENTED NEUTROPHIL / BASOPHIL / EOSINOPHIL / ERYTHROCYTE COUNT / HEMATOCRIT / HEMOGLOBIN / LEUKOCYTE COUNT / LYMPHOCYTE / MEAN CORPUSCULAR HEMOGLOBIN / MEAN CORPUSCULAR HEMOGLOBIN CONCENTRATION / MEAN CORPUSCULAR VOLUME / MONOCYTE / NEUTROPHIL / NUCLEATED RED BLOOD CELLS / PLATELET COUNT: tissue Blood; for ALANINE AMINOTRANSFERASE / ALBUMIN / ALKALINE PHOSPHATASE / ASPARTATE AMINOTRANSFERASE / BLOOD UREA NITROGEN / CARBON DIOXIDE / CHLORIDE / CHOLESTEROL / CREATINE PHOSPHOKINASE / CREATININE / GLUCOSE / LACTATE DEHYDROGENASE / LIPASE / PHOSPHORUS / POTASSIUM / SODIUM / TOTAL BILIRUBIN / TOTAL PROTEIN / URIC ACID: tissue Plasma
[1] = 2 mg/kg, 120 h, dose level Low, time 5 day
[2] = 17 mg/kg, 72 h, dose level High, time 3 day
[3] = 17 mg/kg, 120 h, dose level High, time 5 day

`CCC(=O)O[C@]1(C(=O)CCl)[C@@H](C)C[C@H]2[C@@H]3CCC4=CC(=O)C=C[C@]4(C)[C@@]3(F)[C@@H](O)C[C@@]21C` [CLOBETASOL PROPIONATE] was tested, and the “ABSOLUTE BASOPHIL” value [1] was 0 CELLS/uL, the “ABSOLUTE EOSINOPHIL” value [1] was 128.67 CELLS/uL and the “ABSOLUTE LYMPHOCYTE” value [1] was 583 CELLS/uL. The “ABSOLUTE MONOCYTE” value [1] was 17.33 CELLS/uL, the “ABSOLUTE SEGMENTED NEUTROPHIL” value [1] was 7437.67 CELLS/uL and the BASOPHIL [1] was 0%. For the same compound, the EOSINOPHIL [1] was 1.33%, the “ERYTHROCYTE COUNT” value [1] was 6.32 x10E6/uL and the HEMATOCRIT [1] was 40.2%. For the same compound, the HEMOGLOBIN [1] was 14.5 G/DL, the “LEUKOCYTE COUNT” value [1] was 8.17 x10E3/uL and the LYMPHOCYTE [1] was 6.67%. The “MEAN CORPUSCULAR HEMOGLOBIN” value [1] was 23.07 pg, the “MEAN CORPUSCULAR HEMOGLOBIN CONCENTRATION” value [1] was 36.1 G/DL and the “MEAN CORPUSCULAR VOLUME” value [1] was 63.83 fL. For the same compound, the MONOCYTE [1] was 0.33%, the NEUTROPHIL [1] was 91.67% and the “NUCLEATED RED BLOOD CELLS” value [1] was 0 /100WBC. For the same compound, the “PLATELET COUNT” value [1] was 805.67 x10E3/uL, the “ALANINE AMINOTRANSFERASE” value [1] was 191.67 u/L and the ALBUMIN [1] was 4.53 G/DL. For the same compound, the “ALKALINE PHOSPHATASE” value [1] was 392 u/L, the “ASPARTATE AMINOTRANSFERASE” value [1] was 342 u/L and the “BLOOD UREA NITROGEN” value [1] was 24.33 mg/dL. The “CARBON DIOXIDE” value [1] was 19.67 mmol/L, the CHLORIDE [1] was 102.67 MEQ/L and the CHOLESTEROL [1] was 160 mg/dL. For the same compound, the “CREATINE PHOSPHOKINASE” value [1] was 1604 u/L, the CREATININE [1] was 0.28 mg/dL and the GLUCOSE [1] was 604.67 mg/dL. The “LACTATE DEHYDROGENASE” value [1] was 516.33 u/L, the LIPASE [1] was 10.33 u/L and the PHOSPHORUS [1] was 11.93 mg/dL. The POTASSIUM [1] was 4.7 MEQ/L, the SODIUM [1] was 143.1 MEQ/L and the “TOTAL BILIRUBIN” value [1] was 0.7 mg/dL. For the same compound, the “TOTAL PROTEIN” value [1] was 6.67 G/DL, the “URIC ACID” value [1] was 0.9 mg/dL and the “ABSOLUTE BASOPHIL” value [2] was 0 CELLS/uL. The “ABSOLUTE EOSINOPHIL” value [2] was 24 CELLS/uL, the “ABSOLUTE LYMPHOCYTE” value [2] was 383 CELLS/uL and the “ABSOLUTE MONOCYTE” value [2] was 0 CELLS/uL. For the same compound, the “ABSOLUTE SEGMENTED NEUTROPHIL” value [2] was 2026.33 CELLS/uL, the BASOPHIL [2] was 0% and the EOSINOPHIL [2] was 1%. The “ERYTHROCYTE COUNT” value [2] was 5.77 x10E6/uL, the HEMATOCRIT [2] was 36.77% and the HEMOGLOBIN [2] was 13.07 G/DL. The “LEUKOCYTE COUNT” value [2] was 2.43 x10E3/uL, the LYMPHOCYTE [2] was 15.67% and the “MEAN CORPUSCULAR HEMOGLOBIN” value [2] was 22.7 pg. For the same compound, the “MEAN CORPUSCULAR HEMOGLOBIN CONCENTRATION” value [2] was 35.57 G/DL, the “MEAN CORPUSCULAR VOLUME” value [2] was 63.9 fL and the MONOCYTE [2] was 0%. For the same compound, the NEUTROPHIL [2] was 83.33%, the “NUCLEATED RED BLOOD CELLS” value [2] was 0 /100WBC and the “PLATELET COUNT” value [2] was 1160 x10E3/uL. For the same compound, the “ALANINE AMINOTRANSFERASE” value [2] was 95 u/L, the ALBUMIN [2] was 5.23 G/DL and the “ALKALINE PHOSPHATASE” value [2] was 460.67 u/L. The “ASPARTATE AMINOTRANSFERASE” value [2] was 128.33 u/L, the “BLOOD UREA NITROGEN” value [2] was 25.67 mg/dL and the “CARBON DIOXIDE” value [2] was 23.33 mmol/L. The CHLORIDE [2] was 101.5 MEQ/L, the CHOLESTEROL [2] was 162.67 mg/dL and the “CREATINE PHOSPHOKINASE” value [2] was 209.33 u/L. The CREATININE [2] was 0.29 mg/dL, the GLUCOSE [2] was 571.33 mg/dL and the “LACTATE DEHYDROGENASE” value [2] was 160.33 u/L. The LIPASE [2] was 10.5 u/L, the PHOSPHORUS [2] was 10 mg/dL and the POTASSIUM [2] was 4.82 MEQ/L. For the same compound, the SODIUM [2] was 141.8 MEQ/L, the “TOTAL BILIRUBIN” value [2] was 0.2 mg/dL and the “TOTAL PROTEIN” value [2] was 7.47 G/DL. For the same compound, the “URIC ACID” value [2] was 0.4 mg/dL, the “ABSOLUTE BASOPHIL” value [3] was 0 CELLS/uL and the “ABSOLUTE EOSINOPHIL” value [3] was 214.67 CELLS/uL. The “ABSOLUTE LYMPHOCYTE” value [3] was 340.67 CELLS/uL, the “ABSOLUTE MONOCYTE” value [3] was 76.33 CELLS/uL and the “ABSOLUTE SEGMENTED NEUTROPHIL” value [3] was 17401.67 CELLS/uL. The BASOPHIL [3] was 0%, the EOSINOPHIL [3] was 1% and the “ERYTHROCYTE COUNT” value [3] was 6.25 x10E6/uL. For the same compound, the HEMATOCRIT [3] was 38.87%, the HEMOGLOBIN [3] was 14.47 G/DL and the “LEUKOCYTE COUNT” value [3] was 18.03 x10E3/uL. The LYMPHOCYTE [3] was 2%, the “MEAN CORPUSCULAR HEMOGLOBIN” value [3] was 23.17 pg and the “MEAN CORPUSCULAR HEMOGLOBIN CONCENTRATION” value [3] was 37.23 G/DL. The “MEAN CORPUSCULAR VOLUME” value [3] was 62.2 fL, the MONOCYTE [3] was 0.33% and the NEUTROPHIL [3] was 96.67%. The “NUCLEATED RED BLOOD CELLS” value [3] was 0 /100WBC, the “PLATELET COUNT” value [3] was 927.33 x10E3/uL and the “ALANINE AMINOTRANSFERASE” value [3] was 204.67 u/L. For the same compound, the ALBUMIN [3] was 3.67 G/DL, the “ALKALINE PHOSPHATASE” value [3] was 242.33 u/L and the “ASPARTATE AMINOTRANSFERASE” value [3] was 271.33 u/L. The “BLOOD UREA NITROGEN” value [3] was 24.67 mg/dL, the “CARBON DIOXIDE” value [3] was 22 mmol/L and the CHLORIDE [3] was 99.33 MEQ/L. The CHOLESTEROL [3] was 122.33 mg/dL, the “CREATINE PHOSPHOKINASE” value [3] was 1143.67 u/L and the CREATININE [3] was 0.2 mg/dL. For the same compound, the GLUCOSE [3] was 515.33 mg/dL, the “LACTATE DEHYDROGENASE” value [3] was 439.33 u/L and the LIPASE [3] was 9.67 u/L. The PHOSPHORUS [3] was 12.77 mg/dL, the POTASSIUM [3] was 4.7 MEQ/L and the SODIUM [3] was 140.6 MEQ/L. For the same compound, the “TOTAL BILIRUBIN” value [3] was 0.73 mg/dL, the “TOTAL PROTEIN” value [3] was 5.7 G/DL and the “URIC ACID” value [3] was 1.07 mg/dL.
